{
  "source": "ChEMBL document CHEMBL4680076",
  "about": "“Hydraphiles enhance antimicrobial potency against Escherichia coli, Pseudomonas aeruginosa, and Bacillus subtilis” (2016)",
  "key": {"[1]": {"test_system": "Escherichia coli", "assay": "Synergistic antimicrobial activity against Escherichia coli K-12 assessed as fold enhancement in tetracycline potency at 0.6 uM incubated for overnight by CLSI method", "type": "functional"}, "[2]": {"test_system": "Escherichia coli", "assay": "Synergistic antimicrobial activity against Escherichia coli K-12 assessed as fold enhancement in kanamycin potency at 1.25 uM incubated for overnight by CLSI method", "type": "functional"}, "[3]": {"test_system": "Escherichia coli", "assay": "Antimicrobial activity against Escherichia coli K-12 assessed as inhibition of bacterial growth incubated for overnight by CLSI method", "type": "functional"}, "[4]": {"test_system": "Escherichia coli", "assay": "Antimicrobial activity against Escherichia coli DH5alpha assessed as inhibition of bacterial growth incubated for overnight by CLSI method", "type": "functional", "conditions": "DH5[alpha]"}, "[5]": {"test_system": "Pseudomonas aeruginosa", "assay": "Synergistic antimicrobial activity against Pseudomonas aeruginosa assessed as fold enhancement in erythromycin potency at 0.5 uM incubated for overnight by CLSI method", "type": "functional"}, "[6]": {"test_system": "Escherichia coli", "assay": "Growth inhibition of Escherichia coli DH5alpha at half MIC measured every 15 mins for 12 hrs in presence of 25 uM erythromycin", "type": "functional, organism-based", "conditions": "DH5[alpha]"}, "[7]": {"test_system": "Bacillus subtilis", "assay": "Synergistic antimicrobial activity against Bacillus subtilis assessed as fold enhancement in erythromycin potency at 0.12 uM incubated for overnight by CLSI method", "type": "functional"}, "[8]": {"test_system": "Pseudomonas aeruginosa", "assay": "Synergistic antimicrobial activity against Pseudomonas aeruginosa assessed as fold enhancement in erythromycin potency at 1 uM incubated for overnight by CLSI method", "type": "functional"}, "[9]": {"test_system": "Escherichia coli", "assay": "Synergistic antimicrobial activity against Escherichia coli K-12 assessed as fold enhancement in erythromycin potency at 0.6 uM incubated for overnight by CLSI method", "type": "functional"}, "[10]": {"test_system": "Pseudomonas aeruginosa", "assay": "Synergistic antimicrobial activity against Pseudomonas aeruginosa assessed as fold enhancement in rifampicin potency at 0.5 uM incubated for overnight by CLSI method", "type": "functional"}, "[11]": {"test_system": "Bacillus subtilis", "assay": "Synergistic antimicrobial activity against Bacillus subtilis assessed as fold enhancement in tetracyclin potency at 0.12 uM incubated for overnight by CLSI method", "type": "functional"}, "[12]": {"test_system": "Escherichia coli", "assay": "Growth inhibition of Escherichia coli DH5alpha at half MIC measured every 15 mins for 12 hrs", "type": "functional, organism-based", "conditions": "DH5[alpha]"}, "[13]": {"test_system": "Escherichia coli", "assay": "Synergistic antimicrobial activity against Escherichia coli K-12 assessed as enhancement in rifampicin potency at 2.5 uM", "type": "functional, organism-based"}, "[14]": {"test_system": "Pseudomonas aeruginosa", "assay": "Antimicrobial activity against Pseudomonas aeruginosa assessed as inhibition of bacterial growth incubated for overnight by CLSI method", "type": "functional"}, "[15]": {"test_system": "Bacillus subtilis", "assay": "Antimicrobial activity against Bacillus subtilis assessed as inhibition of bacterial growth incubated for overnight by CLSI method", "type": "functional"}, "[16]": {"test_system": "Pseudomonas aeruginosa", "assay": "Synergistic antimicrobial activity against Pseudomonas aeruginosa assessed as fold enhancement in tetracycline potency at 0.5 uM incubated for overnight by CLSI method", "type": "functional"}, "[17]": {"test_system": "Pseudomonas aeruginosa", "assay": "Synergistic antimicrobial activity against Pseudomonas aeruginosa assessed as fold enhancement in rifampicin potency at 1 uM incubated for overnight by CLSI method", "type": "functional"}, "[18]": {"test_system": "Escherichia coli", "assay": "Synergistic antimicrobial activity against Escherichia coli K-12 assessed as fold enhancement in rifampicin potency at 1.25 uM incubated for overnight by CLSI method", "type": "functional"}, "[19]": {"test_system": "Escherichia coli", "assay": "Synergistic antimicrobial activity against Escherichia coli K-12 assessed as fold enhancement in tetracycline potency at 1.25 uM incubated for overnight by CLSI method", "type": "functional"}, "[20]": {"test_system": "Escherichia coli", "assay": "Synergistic antimicrobial activity against Escherichia coli K-12 assessed as fold enhancement in kanamycin potency at 0.6 uM incubated for overnight by CLSI method", "type": "functional, organism-based"}, "[21]": {"test_system": "Escherichia coli", "assay": "Synergistic antimicrobial activity against Escherichia coli K-12 assessed as fold enhancement in erythromycin potency at 1.25 uM incubated for overnight by CLSI method", "type": "functional"}, "[22]": {"test_system": "Escherichia coli", "assay": "Synergistic antimicrobial activity against Escherichia coli K-12 assessed as fold enhancement in rifampicin potency at 0.6 uM incubated for overnight by CLSI method", "type": "functional"}, "[23]": {"test_system": "Pseudomonas aeruginosa", "assay": "Synergistic antimicrobial activity against Pseudomonas aeruginosa assessed as fold enhancement in tetracycline potency at 1 uM incubated for overnight by CLSI method", "type": "functional"}, "[24]": {"test_system": "Escherichia coli", "assay": "Growth inhibition of Escherichia coli DH5alpha at 25 uM measured every 15 mins for 12 hrs", "type": "functional, organism-based", "conditions": "DH5[alpha]"}, "[25]": {"test_system": "Escherichia coli", "assay": "Growth inhibition of Escherichia coli DH5alpha at 50 uM measured every 15 mins for 12 hrs", "type": "functional, organism-based", "conditions": "DH5[alpha]"}, "[26]": {"test_system": "Escherichia coli", "assay": "Synergistic antimicrobial activity against Escherichia coli DH5alpha assessed as fold enhancement in kanamycin potency at 150 uM incubated for overnight by CLSI method", "type": "functional, DH5[alpha]"}, "[27]": {"test_system": "Escherichia coli", "assay": "Synergistic antimicrobial activity against Escherichia coli DH5alpha assessed as fold enhancement in rifampicin potency at 150 uM incubated for overnight by CLSI method", "type": "functional, DH5[alpha]"}, "[28]": {"test_system": "Escherichia coli", "assay": "Synergistic antimicrobial activity against Escherichia coli DH5alpha assessed as fold enhancement in erythromycin potency at 150 uM incubated for overnight by CLSI method", "type": "functional, DH5[alpha]"}, "[29]": {"test_system": "Escherichia coli", "assay": "Synergistic antimicrobial activity against Escherichia coli DH5alpha assessed as fold enhancement in tetracycline potency at 75 uM incubated for overnight by CLSI method", "type": "functional, DH5[alpha]"}, "[30]": {"assay": "Synergistic antimicrobial activity against Escherichia coli DH5alpha assessed as fold enhancement in erythromycin potency at 75 uM incubated for overnight by CLSI method", "type": "functional, K-12"}, "[31]": {"test_system": "Escherichia coli", "assay": "Synergistic antimicrobial activity against Escherichia coli DH5alpha assessed as fold enhancement in kanamycin potency at 75 uM incubated for overnight by CLSI method", "type": "functional, DH5[alpha]"}, "[32]": {"test_system": "Escherichia coli", "assay": "Synergistic antimicrobial activity against Escherichia coli DH5alpha assessed as fold enhancement in tetracycline potency at 150 uM incubated for overnight by CLSI method", "type": "functional, DH5[alpha]"}, "[33]": {"test_system": "Escherichia coli", "assay": "Synergistic antimicrobial activity against Escherichia coli DH5alpha assessed as fold enhancement in rifampicin potency at 75 uM incubated for overnight by CLSI method", "type": "functional, DH5[alpha]"}},
  "note": "The source made the active and inactive calls. The rule behind the calls is not given here.",
  "data": [
    {"molecule": "c1ccc(CN2CCOCCOCCN(CCCCCCCCCCCCCCN3CCOCCOCCN(CCCCCCCCCCCCCCN4CCOCCOCCN(Cc5ccccc5)CCOCCOCC4)CCOCCOCC3)CCOCCOCC2)cc1", "values": [
      {"measurement": "fold change (FC)", "setting": "[1]", "value": 2},
      {"measurement": "fold change (FC)", "setting": "[2]", "value": 2},
      {"measurement": "MIC", "setting": "[3]", "value": 2.5, "unit": "µM"},
      {"measurement": "MIC", "setting": "[4]", "value": 2, "unit": "µM"},
      {"measurement": "fold change (FC)", "setting": "[5]", "value": 4},
      {"measurement": "growth inhibition (GI)", "setting": "[6]", "value": "Active"},
      {"measurement": "fold change (FC)", "setting": "[7]", "value": 2},
      {"measurement": "fold change (FC)", "setting": "[8]", "value": 8},
      {"measurement": "fold change (FC)", "setting": "[9]", "value": 2},
      {"measurement": "fold change (FC)", "setting": "[10]", "value": 5},
      {"measurement": "fold change (FC)", "setting": "[11]", "value": 2},
      {"measurement": "growth inhibition (GI)", "setting": "[12]", "value": "inactive"},
      {"measurement": "Activity", "setting": "[13]", "value": "Active"},
      {"measurement": "MIC", "setting": "[14]", "value": 2, "unit": "µM"},
      {"measurement": "MIC", "setting": "[15]", "value": 0.5, "unit": "µM"},
      {"measurement": "fold change (FC)", "setting": "[16]", "value": 2},
      {"measurement": "fold change (FC)", "setting": "[17]", "value": 11},
      {"measurement": "fold change (FC)", "setting": "[18]", "value": 30},
      {"measurement": "fold change (FC)", "setting": "[19]", "value": 5},
      {"measurement": "fold change (FC)", "setting": "[20]", "value": "inactive"},
      {"measurement": "fold change (FC)", "setting": "[21]", "value": 9},
      {"measurement": "fold change (FC)", "setting": "[22]", "value": 4},
      {"measurement": "fold change (FC)", "setting": "[23]", "value": 4}
    ]},
    {"molecule": "CC[C@H]1OC(=O)[C@H](C)[C@@H](O[C@H]2C[C@@](C)(OC)[C@@H](O)[C@H](C)O2)[C@H](C)[C@@H](O[C@@H]2O[C@H](C)C[C@H](N(C)C)[C@H]2O)[C@](C)(O)C[C@@H](C)C(=O)[C@H](C)[C@@H](O)[C@]1(C)O", "note": "[ERYTHROMYCIN]", "values": [
      {"measurement": "MIC", "setting": "[3]", "value": 700, "unit": "µM"},
      {"measurement": "MIC", "setting": "[4]", "value": 200, "unit": "µM"},
      {"measurement": "MIC", "setting": "[14]", "value": 200, "unit": "µM"},
      {"measurement": "MIC", "setting": "[15]", "value": 0.3, "unit": "µM"},
      {"measurement": "growth inhibition (GI)", "setting": "[24]", "value": "inactive"},
      {"measurement": "growth inhibition (GI)", "setting": "[25]", "value": "Active"}
    ]},
    {"molecule": "CN(C)[C@@H]1C(O)=C(C(N)=O)C(=O)[C@@]2(O)C(O)=C3C(=O)c4c(O)cccc4[C@@](C)(O)[C@H]3C[C@@H]12", "note": "[TETRACYCLINE]", "values": [
      {"measurement": "MIC", "setting": "[3]", "value": 5, "unit": "µM"},
      {"measurement": "MIC", "setting": "[4]", "value": 5, "unit": "µM"},
      {"measurement": "MIC", "setting": "[14]", "value": 12, "unit": "µM"},
      {"measurement": "MIC", "setting": "[15]", "value": 3, "unit": "µM"}
    ]},
    {"molecule": "c1ccc(CN2CCOCCOCCN(CCCCCCCCCCCCCCCCN3CCOCCOCCN(CCCCCCCCCCCCCCCCN4CCOCCOCCN(Cc5ccccc5)CCOCCOCC4)CCOCCOCC3)CCOCCOCC2)cc1", "values": [
      {"measurement": "MIC", "setting": "[4]", "value": 4, "unit": "µM"},
      {"measurement": "fold change (FC)", "setting": "[5]", "value": 4},
      {"measurement": "fold change (FC)", "setting": "[8]", "value": 8},
      {"measurement": "MIC", "setting": "[14]", "value": 2, "unit": "µM"}
    ]},
    {"molecule": "c1ccc(CN2CCOCCOCCN(CCCCCCCCN3CCOCCOCCN(CCCCCCCCN4CCOCCOCCN(Cc5ccccc5)CCOCCOCC4)CCOCCOCC3)CCOCCOCC2)cc1", "values": [
      {"measurement": "MIC", "setting": "[3]", "value": 200, "unit": "µM"},
      {"measurement": "MIC", "setting": "[4]", "value": 300, "unit": "µM"},
      {"measurement": "fold change (FC)", "setting": "[26]", "value": 3},
      {"measurement": "fold change (FC)", "setting": "[27]", "value": 18},
      {"measurement": "fold change (FC)", "setting": "[28]", "value": 13},
      {"measurement": "fold change (FC)", "setting": "[29]", "value": 2},
      {"measurement": "fold change (FC)", "setting": "[30]", "value": 8},
      {"measurement": "Activity", "setting": "[13]", "value": "inactive"},
      {"measurement": "fold change (FC)", "setting": "[31]", "value": 2},
      {"measurement": "fold change (FC)", "setting": "[32]", "value": 5},
      {"measurement": "fold change (FC)", "setting": "[33]", "value": 18}
    ]},
    {"molecule": "CO[C@H]1/C=C/O[C@@]2(C)Oc3c(C)c(O)c4c(O)c(c(/C=N/N5CCN(C)CC5)c(O)c4c3C2=O)NC(=O)/C(C)=C\\C=C\\[C@H](C)[C@H](O)[C@@H](C)[C@@H](O)[C@@H](C)[C@H](OC(C)=O)[C@@H]1C", "note": "[RIFAMPIN]", "values": [
      {"measurement": "MIC", "setting": "[3]", "value": 16, "unit": "µM"},
      {"measurement": "MIC", "setting": "[4]", "value": 55, "unit": "µM"},
      {"measurement": "MIC", "setting": "[14]", "value": 25, "unit": "µM"}
    ]}
  ]
}
